Source: PubChem BioAssay (NCI)
“And” between values parts separate entries of the source, which are not always exact repeats. Equal entries are not always repeated.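 In this assay, cells in 96-well plates receive the compound at five concentrations for 48 hours. Endpoints are linearly interpolated between the surrounding concentrations. The concentration for 50% growth inhibition is given as GI50. TGI denotes the concentration required for complete inhibition of growth.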

How the values were obtained:
Assay in all cases: NCI tumour cell line growth inhibition, 48 h
[1] = tested on: 786-0 renal
[2] = tested on: A498 renal
[3] = tested on: A549 NSCLC
[4] = tested on: ACHN renal
[5] = tested on: BT-549 breast
[6] = tested on: CAKI-1 renal
[7] = tested on: CCRF-CEM leukemia
[8] = tested on: COLO 205 colon
[9] = tested on: DU-145 prostate
[10] = tested on: HCC-2998 colon
[11] = tested on: HCT-116 colon
[12] = tested on: HCT-15 colon
[13] = tested on: HL-60(TB) leukemia
[14] = tested on: HOP-62 NSCLC
[15] = tested on: HOP-92 NSCLC
[16] = tested on: HS 578T breast
[17] = tested on: HT29 colon
[18] = tested on: IGROV1 ovarian
[19] = tested on: K-562 leukemia
[20] = tested on: KM12 colon
[21] = tested on: LOX IMVI melanoma
[22] = tested on: M14 melanoma
[23] = tested on: MALME-3M melanoma
[24] = tested on: MCF7 breast
[25] = tested on: MDA-MB-231 breast
[26] = tested on: MDA-MB-435
[27] = tested on: MOLT-4 leukemia
[28] = tested on: NCI-H23 lung
[29] = tested on: NCI-H460 lung
[30] = tested on: NCI-H522 lung
[31] = tested on: NCI/ADR-RES ovarian
[32] = tested on: OVCAR-3 ovarian
[33] = tested on: OVCAR-4 ovarian
[34] = tested on: OVCAR-5 ovarian
[35] = tested on: OVCAR-8 ovarian
[36] = tested on: PC-3 prostate
[37] = tested on: RPMI-8226 leukemia
[38] = tested on: RXF 393 renal
[39] = tested on: SF-268 CNS
[40] = tested on: SF-295 CNS
[41] = tested on: SF-539 CNS
[42] = tested on: SK-MEL-2 melanoma
[43] = tested on: SK-MEL-28 melanoma
[44] = tested on: SK-MEL-5 melanoma
[45] = tested on: SK-OV-3 ovarian
[46] = tested on: SN12C renal
[47] = tested on: SNB-19 CNS
[48] = tested on: SNB-75 CNS
[49] = tested on: SR leukemia
[50] = tested on: SW-620 colon
[51] = tested on: T-47D breast
[52] = tested on: TK-10 renal
[53] = tested on: U251 CNS
[54] = tested on: UACC-257 melanoma
[55] = tested on: UACC-62 melanoma
[56] = tested on: UO-31 renal

## COc1cc(NS(C)(=O)=O)ccc1Nc1c2ccccc2nc2c(C)cccc12
[1]
  GI50: 160 nM and 170 nM
  TGI: 923 nM and 1340 nM
[2]
  GI50: 80.6 nM and 96.8 nM
  TGI: 1030 nM and 1600 nM
[3]
  GI50: 18.9 nM and 23.4 nM
  TGI: 1250 nM and 1040 nM
[4]
  GI50: 42.7 nM and 46.4 nM
  TGI: 1280 nM and 1570 nM
[5]
  GI50: 412 nM and 394 nM
  TGI: 4620 nM and 2860 nM
[6]
  GI50: 73 nM and 92.3 nM
  TGI: 4600 nM and 5710 nM
[7]
  GI50: 32.2 nM and 36.4 nM
[8]
  GI50: 245 nM and 243 nM
  TGI: 2590 nM and 5160 nM
[9]
  GI50: 145 nM and 163 nM
  TGI: 7000 nM and 11500 nM
[10]
  GI50: 645 nM and 695 nM
  TGI: 6320 nM and 5510 nM
[11]
  GI50: 133 nM and 160 nM
  TGI: 2130 nM and 2370 nM
[12]
  GI50: 202 nM and 242 nM
  TGI: 2610 nM and 3530 nM
[13]
  GI50: 40.3 nM and 46 nM
  TGI: 889 nM and 669 nM
[14]
  GI50: 104 nM and 117 nM
  TGI: 1370 nM and 1340 nM
[15]
  GI50: 49.5 nM and 104 nM
  TGI: 1100 nM and 2270 nM
[16]
  GI50: 652 nM and 406 nM
  TGI: 12800 nM and 6530 nM
[17]
  GI50: 443 nM and 372 nM
  TGI: 8980 nM and 2090 nM
[18]
  GI50: 541 nM and 438 nM
  TGI: 24100 nM and 19900 nM
[19]
  GI50: 272 nM and 276 nM
  TGI: > 37800 nM and 11800 nM
[20]
  GI50: 416 nM and 558 nM
  TGI: 2420 nM and 3740 nM
[21]
  GI50: 51.2 nM and 54.4 nM
  TGI: 1350 nM and 1510 nM
[22]
  GI50: 198 nM and 129 nM
  TGI: 13900 nM and 11100 nM
[23]
  GI50: 312 nM and 251 nM
  TGI: 3810 nM and 3200 nM
[24]
  GI50: 24.8 nM and 33.7 nM
  TGI: 4420 nM and 11900 nM
[25]
  GI50: 1730 nM and 2880 nM
  TGI: 7010 nM and 15300 nM
[26]
  GI50: 626 nM and 1440 nM
  TGI: 11900 nM and 18100 nM
[27]
  GI50: 24.5 nM and 30.4 nM
  TGI: 229 nM and 176 nM
[28]
  GI50: 134 nM and 191 nM
  TGI: 2880 nM and 11400 nM
[29]
  GI50: 17.5 nM and 22 nM
  TGI: 1100 nM and 1080 nM
[30]
  GI50: 662 nM and 219 nM
  TGI: 12200 nM and 2980 nM
[31]
  GI50: 992 nM and 1450 nM
  TGI: 76100 nM and 54900 nM
[32]
  GI50: 794 nM and 933 nM
  TGI: 2350 nM and 2940 nM
[33]
  GI50: 1860 nM and 2600 nM
  TGI: 9740 nM and 16700 nM
[34]
  GI50: 571 nM and 572 nM
  TGI: 13900 nM and 11900 nM
[35]
  GI50: 233 nM and 230 nM
  TGI: 7080 nM and 11600 nM
[36]
  GI50: 629 nM and 1050 nM
  TGI: 18600 nM and 25500 nM
[37]
  GI50: 187 nM and 134 nM
  TGI: 853 nM and 717 nM
[38]
  GI50: 258 nM and 326 nM
  TGI: 1720 nM and 3360 nM
[39]
  GI50: 266 nM and 288 nM
  TGI: 13600 nM and 14200 nM
[40]
  GI50: 39.9 nM and 87.4 nM
  TGI: 386 nM and 3460 nM
[41]
  GI50: 102 nM and 123 nM
  TGI: 699 nM and 584 nM
[42]
  GI50: 6540 nM and 1720 nM
  TGI: 20800 nM and 10400 nM
[43]
  GI50: 1100 nM and 1330 nM
  TGI: 7680 nM and 13700 nM
[44]
  GI50: 153 nM and 218 nM
  TGI: 1200 nM and 3690 nM
[45]
  GI50: 302 nM and 332 nM
  TGI: 7800 nM and 11000 nM
[46]
  GI50: 96.1 nM and 87 nM
  TGI: 1360 nM and 2080 nM
[47]
  GI50: 196 nM and 230 nM
  TGI: 15500 nM and 15900 nM
[48]
  GI50: 143 nM and 316 nM
  TGI: 4310 nM and 10700 nM
[49]
  GI50: < 14.5 nM and 13 nM
  TGI: 6750 nM and 2160 nM
[50]
  GI50: 82.5 nM and 123 nM
  TGI: 3400 nM and 4000 nM
[51]
  GI50: 111 nM and 109 nM
  TGI: 4050 nM and 5710 nM
[52]
  GI50: 476 nM and 160 nM
  TGI: 2940 nM and 1380 nM
[53]
  GI50: 106 nM and 96.3 nM
  TGI: 1150 nM and 868 nM
[54]
  GI50: 792 nM and 639 nM
  TGI: 12100 nM and 13500 nM
[55]
  GI50: 182 nM and 211 nM
  TGI: 2970 nM and 4190 nM
[56]
  GI50: 215 nM and 124 nM
  TGI: 5280 nM and 2810 nM
